In patent publication US20260035384A1, “COMPOUND CONTAINING CYCLOHEXYL” (CHIA TAI TIANQING PHARMACEUTICAL GROUP CO., LTD., priority 2022, published 2026):
pIC50: −log10 of the molar value.

Assays:
[1] = target: T1, AR in VCaP cells (Homo sapiens, UniProt P10275); assay: Assay on degradation activity for AR in VCaP cells (HTRF human androgen receptor detection kit); format: cell-based; conditions: 24 h incubation
T1 construct: Assay on Degradation Activity for AR in VCaP Cells; endogenous in cells; host or cells: VCaP cells
T1 sequence (P10275 1-920): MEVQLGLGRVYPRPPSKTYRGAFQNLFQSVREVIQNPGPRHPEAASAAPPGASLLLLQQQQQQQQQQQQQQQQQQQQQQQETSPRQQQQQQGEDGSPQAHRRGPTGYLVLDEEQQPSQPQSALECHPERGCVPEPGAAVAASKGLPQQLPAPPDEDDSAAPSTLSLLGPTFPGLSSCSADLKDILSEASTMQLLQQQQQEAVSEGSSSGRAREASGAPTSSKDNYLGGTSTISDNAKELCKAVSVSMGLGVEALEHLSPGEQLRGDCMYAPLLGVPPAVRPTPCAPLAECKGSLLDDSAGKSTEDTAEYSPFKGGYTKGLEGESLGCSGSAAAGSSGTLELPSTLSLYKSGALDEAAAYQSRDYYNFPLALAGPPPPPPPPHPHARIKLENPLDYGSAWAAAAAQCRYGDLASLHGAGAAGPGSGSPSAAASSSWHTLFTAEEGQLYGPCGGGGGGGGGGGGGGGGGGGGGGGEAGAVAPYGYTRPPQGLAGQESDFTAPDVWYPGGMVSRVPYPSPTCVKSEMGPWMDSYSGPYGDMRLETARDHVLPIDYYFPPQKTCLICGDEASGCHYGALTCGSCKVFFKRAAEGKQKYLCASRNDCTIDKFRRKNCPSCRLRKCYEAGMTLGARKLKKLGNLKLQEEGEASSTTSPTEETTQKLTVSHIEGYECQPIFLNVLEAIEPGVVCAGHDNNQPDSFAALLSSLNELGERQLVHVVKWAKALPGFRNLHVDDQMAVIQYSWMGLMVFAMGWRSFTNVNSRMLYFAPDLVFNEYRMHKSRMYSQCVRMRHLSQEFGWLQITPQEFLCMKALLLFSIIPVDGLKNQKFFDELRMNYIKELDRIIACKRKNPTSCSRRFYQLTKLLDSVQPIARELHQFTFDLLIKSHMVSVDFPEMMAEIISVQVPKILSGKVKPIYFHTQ
In short: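 VCaP cells seeded overnight in 2% CSS-FBS phenol red-free DMEM, then treated 24 h with compound at 1000 nM–0.977 nM final, in duplicate. Lysates probed with AR Eu cryptate/d2 antibody HTRF (2 h, 25° C., 665/620 nm); DC50 and Dmax from four-parameter dose-response fits.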

[2] = tested on: LNCaP cells; assay: Assay on inhibitory activity for LNCaP cell proliferation (CCK-8); format: cell-based; conditions: Homo sapiens, 168 h incubation
In short: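 Cells seeded at 1×10^5 cells/mL in phenol red-free 1640 with 2% CSS-FBS, treated at final 10000 nM-0.61 nM in duplicate. After 168 h incubation, viability read with CCK-8.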

With `N#Cc1ccc(O[C@H]2CC[C@H](NC(=O)c3ccc(C4CCN(C5CN(c6cc7onc(C8CCC(=O)NC8=O)c7c7ccccc67)C5)CC4)nn3)CC2)cc1Cl` (some centres unmarked) [Compound 48] the DC50 [1] was ≤ 1 nM and the pIC50 [2] was > 6.00.
